In US8288371B2, “Ortho pyrrolidine, benzyl-substituted heterocycle CCR1 antagonists for autoimmune diseases and inflammation” (Pharmacopeia, LLC, priority 2007, dated 2012):

Target: T1, human CCR1 (Homo sapiens, UniProt P32246)
T1 sequence (P32246 1-355): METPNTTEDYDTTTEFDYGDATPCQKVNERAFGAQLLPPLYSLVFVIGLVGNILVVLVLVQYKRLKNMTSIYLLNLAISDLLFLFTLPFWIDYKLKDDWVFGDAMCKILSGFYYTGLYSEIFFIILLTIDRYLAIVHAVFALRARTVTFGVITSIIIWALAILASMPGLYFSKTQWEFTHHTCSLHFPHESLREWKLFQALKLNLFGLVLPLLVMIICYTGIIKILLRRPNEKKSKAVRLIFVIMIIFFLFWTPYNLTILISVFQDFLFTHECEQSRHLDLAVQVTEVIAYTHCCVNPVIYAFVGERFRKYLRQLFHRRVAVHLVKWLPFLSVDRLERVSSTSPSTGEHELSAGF
Assay: CCR1 binding protocol (SPA, [125I]-MIP-1α displacement)
Conditions: cell membrane expressing human CCR1, 0.1 nM [125I]-MIP-1α, 4 hours at ambient temperature; read-out: Relative potency (IC50)
Procedure: The following protocol was used to test compounds for CCR1 binding. A mixture, including scintillation proximity assay (SPA) beads and cell membrane expressing human CCR1, was prepared in assay buffer (130 mM NaCl+5 mM KCl+1 mM MnCl+50 mM Tris HCl at pH 7.4+0.1% bovine serum albumin (BSA)) at the ratio of 50 μg/ml membrane to 10 mg/ml SPA beads. 10 μl of the mixture was transferred to each well of a 384-well assay plate yielding a final concentration for the membrane and SPA beads of 0.5 μg/well and 100 μg/well, respectively
To generate different concentrations of the test compound, compound stocks were prepared using 10 step ½ log dilutions with a high concentration of 10 mM in DMSO and the lowest concentration being DMSO only without compound. An intermediate 40× dilution was then prepared in the assay buffer. The compound was then transferred at 10 μl/well to the assay plate. 0.5 nM [^125 I]-labeled macrophage inflammatory protein-1α (MIP-1α, an endogenous CCR1 ligand) in the assay buffer was transferred to the assay plate at 5 μl/well, for a final ligand concentration of 0.1 nM. The assay plate was then centrifuged at 2500 rpm for 2 minutes and incubated for 4 hours at ambient temperature, at which time the raw data was recorded using microbeta. The IC50 was then calculated using Graphpad Prism.

| IC50 | Compound |
| --- | --- |
| < 50 nM | Cc1noc(-c2ccccc2)c1NC(=O)N1CCC[C@@H]1c1nnc(C)n1Cc1ccc(Cl)cc1 [Compound 123] |
| < 50 nM | Cc1nnc([C@H]2CCCN2C(=O)N[C@@H](C)c2cccnc2)n1Cc1ccc(Cl)cc1 [Compound 124] |
| < 50 nM | CC[C@H](NC(=O)N1CCC[C@@H]1c1nnc(C)n1Cc1ccc(Cl)cc1)c1ccc(C(F)(F)F)cc1 [Compound 125] |
| < 50 nM | Cc1onc(-c2ccccc2)c1NC(=O)N1CCC[C@@H]1c1nnc(C)n1Cc1ccc(Cl)cc1 [Compound 126] |
| < 50 nM | Cc1nnc([C@H]2CCCN2C(=O)N[C@H]2CCc3cc(Cl)ccc32)n1Cc1ccc(Cl)cc1 [Compound 127] |
| < 50 nM | Cc1nnc([C@H]2CCCN2C(=O)NC(c2ccccc2)c2ccccc2)n1Cc1ccc(Cl)cc1 [Compound 128] |
| < 50 nM | Cc1nnc([C@H]2CCCN2C(=O)NC(c2ccccc2)c2ccc(Cl)cc2)n1Cc1ccc(Cl)cc1 (stereo partly drawn) [Compound 129] |
| < 50 nM | Cc1nnc([C@H]2CCCN2C(=O)NCc2ccc(C(F)(F)F)cc2)n1Cc1ccc(Cl)cc1 [Compound 130] |
| < 50 nM | Cc1nnc([C@H]2CCCN2C(=O)N[C@@H](C)c2ccc3ccccc3c2)n1Cc1ccc(Cl)cc1 [Compound 131] |
| < 50 nM | Cc1nnc([C@H]2CCCN2C(=O)NC2CCc3cc(Cl)ccc32)n1Cc1ccc(Cl)cc1 (stereo partly drawn) [Compound 132] |
| < 50 nM | Cc1nnc([C@H]2CCCN2C(=O)Nc2ccc(C(C)(C)C)cc2)n1Cc1ccc(Cl)cc1 [Compound 133] |
| < 50 nM | Cc1nnc([C@H]2CCCN2C(=O)NC2CCOc3cc(C#N)ccc32)n1Cc1ccc(Cl)cc1 (stereo partly drawn) [Compound 134] |
| < 50 nM | Cc1nnc([C@H]2CCCN2C(=O)Nc2ccc3ccccc3c2)n1Cc1ccc(Cl)cc1 [Compound 135] |
| < 50 nM | Cc1nnc([C@H]2CCCN2C(=O)Nc2ccc(OC(F)(F)F)cc2)n1Cc1ccc(Cl)cc1 [Compound 136] |
| 50 to 500 nM | Cc1nnc([C@H]2CCCN2C(=O)Nc2ccc3c(c2)N(C)C(=O)CO3)n1Cc1ccc(Cl)cc1 [Compound 137] |
| 50 to 500 nM | Cc1nnc([C@H]2CCCN2C(=O)N[C@H]2COCc3c(F)cccc32)n1Cc1ccc(Cl)cc1 [Compound 138] |
| 50 to 500 nM | Cc1nnc([C@H]2CCCN2C(=O)NC(C)c2cccnc2)n1Cc1ccc(Cl)cc1 (stereo partly drawn) [Compound 139] |
| 50 to 500 nM | Cc1nnc([C@H]2CCCN2C(=O)N[C@H](C)c2cccnc2)n1Cc1ccc(Cl)cc1 [Compound 140] |
| 50 to 500 nM | Cc1nnc([C@H]2CCCN2C(=O)N[C@@H]2COCc3c(F)cccc32)n1Cc1ccc(Cl)cc1 [Compound 141] |
| 50 to 500 nM | Cc1nnc([C@H]2CCCN2C(=O)NC2COCc3c(F)cccc32)n1Cc1ccc(Cl)cc1 (stereo partly drawn) [Compound 142] |
| 50 to 500 nM | Cc1nnc([C@H]2CCCN2C(=O)N[C@@H]2CCc3cc(Cl)ccc32)n1Cc1ccc(Cl)cc1 [Compound 143] |
| < 50 nM | Cc1nnc([C@H]2CCCN2C(=O)Nc2ccc(Cl)cc2F)n1Cc1ccc(Cl)cc1 [Compound 144] |
| 50 to 500 nM | Cc1nnc([C@H]2CCCN2C(=O)NCc2cccc(C(F)(F)F)c2)n1Cc1ccc(Cl)cc1 [Compound 145] |
| 50 to 500 nM | Cc1nnc([C@H]2CCCN2C(=O)Nc2ccccc2C(F)(F)F)n1Cc1ccc(Cl)cc1 [Compound 146] |
| < 50 nM | Cc1nnc([C@H]2CCCN2C(=O)N[C@@H]2CCCOc3ccc(Cl)cc32)n1Cc1ccc(Cl)cc1 [Compound 147] |
| 50 to 500 nM | O=C(N[C@@H]1CCCOc2ccc(Cl)cc21)N1CCC[C@@H]1c1nncn1Cc1ccc(Cl)cc1 [Compound 148] |
| < 50 nM | Cc1nnc([C@H]2CCCN2C(=O)N[C@H]2CCOc3c(F)cccc32)n1Cc1ccc(Cl)cc1 [Compound 149] |

| IC50 | Compound |
| --- | --- |
| < 50 nM | Cc1cc(C)c(NC(=O)N2CCC[C@@H]2c2nnc(C)n2Cc2ccc(Cl)cc2)c(C)c1 [Compound 150] |
| < 50 nM | Cc1cccc(Cl)c1NC(=O)N1CCC[C@@H]1c1nnc(C)n1Cc1ccc(Cl)cc1 [Compound 151] |
| < 50 nM | Cc1nnc([C@H]2CCCN2C(=O)N[C@H]2CCOc3cc(F)ccc32)n1Cc1ccc(Cl)cc1 [Compound 152] |
| < 50 nM | Cc1nnc([C@H]2CCCN2C(=O)N[C@H]2CCOc3c(F)cc(F)cc32)n1Cc1ccc(Cl)cc1 [Compound 153] |
| 50 to 500 nM | Cc1nnc([C@H]2CCCN2C(=O)Nc2ccc(C(F)(F)F)cc2Cl)n1Cc1ccc(Cl)cc1 [Compound 154] |
| 50 to 500 nM | Cc1nnc([C@H]2CCCN2C(=O)N[C@H]2CCc3ccccc32)n1Cc1ccc(Cl)cc1 [Compound 155] |
| 50 to 500 nM | Cc1nnc([C@H]2CCCN2C(=O)N[C@H]2CCCOc3ccc(Cl)cc32)n1Cc1ccc(Cl)cc1 [Compound 156] |
| 50 to 500 nM | Cc1nnc([C@H]2CCCN2C(=O)N[C@H]2CCOc3ccc(F)cc32)n1Cc1ccc(Cl)cc1 [Compound 157] |
| 50 to 500 nM | Cc1cccc(C)c1NC(=O)N1CCC[C@@H]1c1nnc(C)n1Cc1ccc(Cl)cc1 [Compound 158] |
| 50 to 500 nM | O=C(N[C@H]1CCCOc2ccc(Cl)cc21)N1CCC[C@@H]1c1nncn1Cc1ccc(Cl)cc1 [Compound 159] |
| 50 to 500 nM | Cc1nnc([C@H]2CCCN2C(=O)Nc2ccc(Cl)cc2)n1Cc1ccc(Cl)cc1 [Compound 160] |
| 50 to 500 nM | Cc1nnc([C@H]2CCCN2C(=O)N[C@H]2CCOc3c(F)ccc(F)c32)n1Cc1ccc(Cl)cc1 [Compound 161] |
| 50 to 500 nM | Cc1nnc([C@H]2CCCN2C(=O)Nc2ccc(Br)cc2)n1Cc1ccc(Cl)cc1 [Compound 162] |
| 50 to 500 nM | Cc1nnc([C@H]2CCCN2C(=O)Nc2cccc(Cl)c2)n1Cc1ccc(Cl)cc1 [Compound 163] |
| 50 to 500 nM | Cc1nnc([C@H]2CCCN2C(=O)N[C@H]2CCOc3cccc(F)c32)n1Cc1ccc(Cl)cc1 [Compound 164] |
| 50 to 500 nM | Cc1nnc([C@H]2CCCN2C(=O)N[C@H]2CCOc3c(F)ccc(Cl)c32)n1Cc1ccc(Cl)cc1 [Compound 165] |
| < 50 nM | CCc1nnc([C@H]2CCCN2C(=O)Nc2c(C)cc(C(F)(F)F)cc2C)n1Cc1ccc(Cl)cc1 [Compound 167] |
| < 50 nM | Cc1nnc([C@H]2CCCN2C(=O)N[C@@H](C)c2ccc(Cl)c(Cl)c2)n1Cc1ccc(Cl)cc1 [Compound 168] |
| < 50 nM | Cc1nnc([C@H]2CCCN2C(=O)N[C@H]2CCc3cc(C(F)(F)F)ccc32)n1Cc1ccc(Cl)cc1 [Compound 169] |
| < 50 nM | Cc1nnc([C@H]2CCCN2C(=O)N[C@@H](C)c2ccc(Cl)cc2)n1Cc1ccc(Cl)cc1 [Compound 170] |
| 50 to 500 nM | Cc1nnc([C@H]2CCCN2C(=O)N[C@H]2CCc3ccc(C(F)(F)F)cc32)n1Cc1ccc(Cl)cc1 [Compound 171] |
| 50 to 500 nM | Cc1nnc([C@H]2CCCN2C(=O)N[C@H]2CCCc3ccccc32)n1Cc1ccc(Cl)cc1 [Compound 172] |
| 50 to 500 nM | Cc1nnc([C@H]2CCCN2C(=O)Cc2ccc(C(F)(F)F)cc2)n1Cc1ccc(Cl)cc1 [Compound 173] |
| 50 to 500 nM | Cc1nnc([C@H]2CCCN2C(=O)Cc2ccc(Cl)cc2)n1Cc1ccc(Cl)cc1 [Compound 174] |
| 500 to 5000 nM | Cc1nnc([C@H]2CCCN2C(=O)Oc2ccc(Cl)cc2)n1Cc1ccc(Cl)cc1 [Compound 175] |
| 500 to 5000 nM | Cc1nnc([C@H]2CCCN2C(=O)Oc2ccc(F)cc2)n1Cc1ccc(Cl)cc1 [Compound 176] |
| < 50 nM | Cc1nnc([C@H]2CCCN2C(=O)NC2CCCOc3cc(C(F)(F)F)ccc32)n1Cc1ccc(Cl)cc1 (stereo partly drawn) [Compound 177] |
